# Measured values reported in patent US8252799B2, “Hexahydro-1H-4,7-methanoisoindole-1,3-dione compounds” (Merck Sharp & Dohme Corp., priority 2007, dated 2012).
# What was measured:
# D3 = D3 (Homo sapiens, UniProt P35462); assay: In Vitro Affinity (Ki) on Human Receptors: D3; assay type: binding; conditions: human receptor
# α1A = molecular target: T1, α1A (Homo sapiens, UniProt P35348); assay: In Vitro Affinity (Ki) on Human Receptors: α1A; assay type: binding; conditions: human receptor
# T1 sequence (P35348 1-466): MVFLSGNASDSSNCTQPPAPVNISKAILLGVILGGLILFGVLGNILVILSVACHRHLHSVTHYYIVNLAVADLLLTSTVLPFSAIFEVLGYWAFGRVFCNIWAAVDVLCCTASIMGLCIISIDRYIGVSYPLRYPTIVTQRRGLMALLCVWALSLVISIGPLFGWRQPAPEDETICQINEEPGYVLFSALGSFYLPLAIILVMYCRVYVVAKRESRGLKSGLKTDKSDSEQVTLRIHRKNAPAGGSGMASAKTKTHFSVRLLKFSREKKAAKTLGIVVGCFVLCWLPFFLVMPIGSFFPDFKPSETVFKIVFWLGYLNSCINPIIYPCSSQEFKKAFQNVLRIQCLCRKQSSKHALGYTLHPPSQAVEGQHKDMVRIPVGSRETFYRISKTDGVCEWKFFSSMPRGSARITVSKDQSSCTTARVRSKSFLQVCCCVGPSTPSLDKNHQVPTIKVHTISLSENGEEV
# 5HT2C [1] = molecular target: T2, 5HT2C (Homo sapiens, UniProt P28335); assay: In Vitro Affinity (Ki) on Human Receptors: 5HT2C; assay type: binding; conditions: human receptor
# 5HT1A = molecular target: T3, 5HT1A (Homo sapiens, UniProt P08908); assay: Functional Potency on Human Receptors: 5HT1A; assay type: biochemical; conditions: human receptor
# T3 sequence (P08908 1-422): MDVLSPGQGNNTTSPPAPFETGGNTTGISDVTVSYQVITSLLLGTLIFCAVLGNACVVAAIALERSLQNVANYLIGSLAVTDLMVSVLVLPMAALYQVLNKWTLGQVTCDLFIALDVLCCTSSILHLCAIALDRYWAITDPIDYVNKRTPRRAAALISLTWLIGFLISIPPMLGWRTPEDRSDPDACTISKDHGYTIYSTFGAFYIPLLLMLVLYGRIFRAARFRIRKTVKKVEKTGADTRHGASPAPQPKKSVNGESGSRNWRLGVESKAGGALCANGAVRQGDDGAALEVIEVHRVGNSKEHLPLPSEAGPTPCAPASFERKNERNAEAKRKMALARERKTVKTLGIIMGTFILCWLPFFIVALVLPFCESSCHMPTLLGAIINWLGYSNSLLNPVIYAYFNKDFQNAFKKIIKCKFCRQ
# 5HT2C [2] = molecular target: T2, 5HT2C; assay: Functional Potency (IC50) on Human Receptors: 5HT2C; assay type: biochemical; conditions: human receptor
# D2 [3] = molecular target: T4, D2 (Homo sapiens, UniProt P14416); assay: Functional Potency (IC50) on Human Receptors: D2; assay type: biochemical; conditions: human receptor
# 5HT2A [4] = molecular target: T5, 5HT2A (Homo sapiens, UniProt P28223); assay: Functional Potency (IC50) on Human Receptors: 5HT2A; assay type: biochemical; conditions: human receptor
# α1D = molecular target: T6, α1D (Homo sapiens, UniProt P25100); assay: In Vitro Affinity (Ki) on Human Receptors: α1D; assay type: binding; conditions: human receptor
# T6 sequence (P25100 1-572): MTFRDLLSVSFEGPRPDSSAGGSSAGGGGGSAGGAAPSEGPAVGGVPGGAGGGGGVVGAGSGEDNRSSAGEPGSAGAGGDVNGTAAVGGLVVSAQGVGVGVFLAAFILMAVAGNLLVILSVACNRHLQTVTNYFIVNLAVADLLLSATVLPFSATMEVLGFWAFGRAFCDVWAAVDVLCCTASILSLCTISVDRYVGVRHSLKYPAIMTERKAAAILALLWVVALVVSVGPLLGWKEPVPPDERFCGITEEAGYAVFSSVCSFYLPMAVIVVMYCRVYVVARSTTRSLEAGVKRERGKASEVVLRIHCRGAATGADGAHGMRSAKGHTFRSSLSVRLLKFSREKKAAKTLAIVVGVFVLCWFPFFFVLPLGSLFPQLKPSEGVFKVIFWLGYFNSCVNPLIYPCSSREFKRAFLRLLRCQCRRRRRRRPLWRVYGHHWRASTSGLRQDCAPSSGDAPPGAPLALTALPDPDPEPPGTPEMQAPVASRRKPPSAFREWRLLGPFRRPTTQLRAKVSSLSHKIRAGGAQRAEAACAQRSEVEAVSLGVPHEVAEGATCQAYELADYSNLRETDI
# D2 [5] = molecular target: T4, D2; assay: In Vitro Affinity (Ki) on Human Receptors: D2; assay type: binding; conditions: human receptor
# α2A [6] = molecular target: T7, α2A (Homo sapiens, UniProt P08913); assay: Functional Potency (IC50) on Human Receptors: α2A; assay type: biochemical; conditions: human receptor
# T7 sequence (P08913 1-465): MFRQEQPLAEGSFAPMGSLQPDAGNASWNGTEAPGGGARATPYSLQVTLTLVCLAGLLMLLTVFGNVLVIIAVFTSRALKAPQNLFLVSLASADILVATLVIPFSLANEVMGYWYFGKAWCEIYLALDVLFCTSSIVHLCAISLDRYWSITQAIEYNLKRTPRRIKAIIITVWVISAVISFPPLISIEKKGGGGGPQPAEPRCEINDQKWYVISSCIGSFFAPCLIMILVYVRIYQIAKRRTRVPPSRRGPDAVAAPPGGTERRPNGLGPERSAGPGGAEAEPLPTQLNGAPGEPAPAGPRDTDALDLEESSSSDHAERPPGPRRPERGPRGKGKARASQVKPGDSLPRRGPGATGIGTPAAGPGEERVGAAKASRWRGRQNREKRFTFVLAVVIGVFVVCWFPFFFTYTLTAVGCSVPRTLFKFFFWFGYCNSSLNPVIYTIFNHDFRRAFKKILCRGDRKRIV
# α2C [7] = molecular target: T8, α2C (Homo sapiens, UniProt P18825); assay: Functional Potency (IC50) on Human Receptors: α2C; assay type: biochemical; conditions: human receptor
# T8 sequence (P18825 1-462): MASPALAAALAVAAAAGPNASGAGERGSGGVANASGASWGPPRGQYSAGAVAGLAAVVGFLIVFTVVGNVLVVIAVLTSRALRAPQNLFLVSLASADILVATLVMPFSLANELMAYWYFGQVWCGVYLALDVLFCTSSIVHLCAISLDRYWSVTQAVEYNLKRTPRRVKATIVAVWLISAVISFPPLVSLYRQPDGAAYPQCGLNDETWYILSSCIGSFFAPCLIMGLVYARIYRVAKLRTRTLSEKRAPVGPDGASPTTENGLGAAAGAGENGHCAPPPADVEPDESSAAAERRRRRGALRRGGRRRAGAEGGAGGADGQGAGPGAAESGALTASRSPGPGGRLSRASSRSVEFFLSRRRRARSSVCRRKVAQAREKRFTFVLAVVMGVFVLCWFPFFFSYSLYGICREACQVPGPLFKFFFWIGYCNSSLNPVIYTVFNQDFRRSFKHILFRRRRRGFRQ
# 5HT2A [8] = molecular target: T5, 5HT2A; assay: In Vitro Affinity (Ki) on Human Receptors: 5HT2A; assay type: binding; conditions: human receptor
# D1 [9] = molecular target: T9, D1 (Homo sapiens, UniProt P21728); assay: In Vitro Affinity (Ki) on Human Receptors: D1; assay type: binding; conditions: human receptor
# hERG [10] = molecular target: T10, hERG (Homo sapiens, UniProt Q12809); assay: Functional Potency (IC50) on Human Receptors: hERG; assay type: biochemical
# hERG [11] = molecular target: T10, hERG; assay: In Vitro Affinity (Ki) on Human Receptors: hERG; assay type: binding
# 5HT1A (native) = molecular target: T11, 5HT1A (native) (Homo sapiens, UniProt P08908); assay: In Vitro Affinity (Ki) on Human Receptors: 5HT1A (native); assay type: binding; conditions: human receptor
# T11 construct: 5HT1A (native) 8 nM
# T11 sequence (P08908 1-422): T3 sequence (P08908 1-422)
# α2C [12] = molecular target: T8, α2C; assay: In Vitro Affinity (Ki) on Human Receptors: α2C; assay type: binding; conditions: human receptor
# D1 [13] = molecular target: T9, D1; assay: Functional Potency (IC50) on Human Receptors: D1; assay type: biochemical; conditions: human receptor
# H1 [14] = molecular target: T12, H1 (Homo sapiens, UniProt P35367); assay: In Vitro Affinity (Ki) on Human Receptors: H1; assay type: binding; conditions: human receptor
# α2A [15] = molecular target: T7, α2A; assay: In Vitro Affinity (Ki) on Human Receptors: α2A; assay type: binding; conditions: human receptor
# H1 [16] = molecular target: T12, H1; assay: Functional Potency (IC50) on Human Receptors: H1; assay type: biochemical; conditions: human receptor
# T2 sequence (P28335 33-458): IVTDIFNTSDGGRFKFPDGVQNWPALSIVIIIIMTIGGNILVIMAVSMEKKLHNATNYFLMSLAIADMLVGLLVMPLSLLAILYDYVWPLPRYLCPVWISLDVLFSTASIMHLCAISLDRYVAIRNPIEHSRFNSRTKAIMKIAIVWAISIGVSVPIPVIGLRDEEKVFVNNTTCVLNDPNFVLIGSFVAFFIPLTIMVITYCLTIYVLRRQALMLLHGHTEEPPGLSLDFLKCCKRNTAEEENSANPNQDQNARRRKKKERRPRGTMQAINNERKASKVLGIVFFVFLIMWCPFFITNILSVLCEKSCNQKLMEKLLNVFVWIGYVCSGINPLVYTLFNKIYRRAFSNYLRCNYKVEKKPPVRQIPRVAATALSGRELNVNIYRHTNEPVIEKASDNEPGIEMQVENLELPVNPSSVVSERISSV
# T4 sequence (P14416 whole entry): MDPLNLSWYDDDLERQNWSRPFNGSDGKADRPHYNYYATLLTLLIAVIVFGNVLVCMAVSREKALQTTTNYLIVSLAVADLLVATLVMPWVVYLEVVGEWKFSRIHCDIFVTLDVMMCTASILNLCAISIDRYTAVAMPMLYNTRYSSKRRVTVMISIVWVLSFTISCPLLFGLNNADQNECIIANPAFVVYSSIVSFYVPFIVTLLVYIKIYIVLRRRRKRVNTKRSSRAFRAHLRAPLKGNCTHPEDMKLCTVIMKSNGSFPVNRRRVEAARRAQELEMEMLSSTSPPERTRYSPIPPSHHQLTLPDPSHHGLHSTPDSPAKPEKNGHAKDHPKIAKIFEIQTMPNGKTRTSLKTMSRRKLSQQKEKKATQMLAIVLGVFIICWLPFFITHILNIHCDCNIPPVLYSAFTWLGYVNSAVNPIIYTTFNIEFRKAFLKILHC
# T5 sequence (P28223 whole entry): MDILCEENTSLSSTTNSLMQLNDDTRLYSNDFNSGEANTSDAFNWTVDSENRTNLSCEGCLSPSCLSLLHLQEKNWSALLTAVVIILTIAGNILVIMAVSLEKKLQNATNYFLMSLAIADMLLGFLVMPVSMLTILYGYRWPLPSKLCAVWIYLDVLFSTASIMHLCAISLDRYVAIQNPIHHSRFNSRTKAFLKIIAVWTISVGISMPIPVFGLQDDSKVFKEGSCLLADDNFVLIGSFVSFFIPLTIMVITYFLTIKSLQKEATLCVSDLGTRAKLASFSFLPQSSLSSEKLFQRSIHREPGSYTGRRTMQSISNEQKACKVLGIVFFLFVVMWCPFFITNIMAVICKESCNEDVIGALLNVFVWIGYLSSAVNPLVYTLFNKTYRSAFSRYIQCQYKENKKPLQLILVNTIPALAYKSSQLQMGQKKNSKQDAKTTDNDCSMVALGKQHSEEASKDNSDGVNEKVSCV
# T10 sequence (Q12809 whole entry): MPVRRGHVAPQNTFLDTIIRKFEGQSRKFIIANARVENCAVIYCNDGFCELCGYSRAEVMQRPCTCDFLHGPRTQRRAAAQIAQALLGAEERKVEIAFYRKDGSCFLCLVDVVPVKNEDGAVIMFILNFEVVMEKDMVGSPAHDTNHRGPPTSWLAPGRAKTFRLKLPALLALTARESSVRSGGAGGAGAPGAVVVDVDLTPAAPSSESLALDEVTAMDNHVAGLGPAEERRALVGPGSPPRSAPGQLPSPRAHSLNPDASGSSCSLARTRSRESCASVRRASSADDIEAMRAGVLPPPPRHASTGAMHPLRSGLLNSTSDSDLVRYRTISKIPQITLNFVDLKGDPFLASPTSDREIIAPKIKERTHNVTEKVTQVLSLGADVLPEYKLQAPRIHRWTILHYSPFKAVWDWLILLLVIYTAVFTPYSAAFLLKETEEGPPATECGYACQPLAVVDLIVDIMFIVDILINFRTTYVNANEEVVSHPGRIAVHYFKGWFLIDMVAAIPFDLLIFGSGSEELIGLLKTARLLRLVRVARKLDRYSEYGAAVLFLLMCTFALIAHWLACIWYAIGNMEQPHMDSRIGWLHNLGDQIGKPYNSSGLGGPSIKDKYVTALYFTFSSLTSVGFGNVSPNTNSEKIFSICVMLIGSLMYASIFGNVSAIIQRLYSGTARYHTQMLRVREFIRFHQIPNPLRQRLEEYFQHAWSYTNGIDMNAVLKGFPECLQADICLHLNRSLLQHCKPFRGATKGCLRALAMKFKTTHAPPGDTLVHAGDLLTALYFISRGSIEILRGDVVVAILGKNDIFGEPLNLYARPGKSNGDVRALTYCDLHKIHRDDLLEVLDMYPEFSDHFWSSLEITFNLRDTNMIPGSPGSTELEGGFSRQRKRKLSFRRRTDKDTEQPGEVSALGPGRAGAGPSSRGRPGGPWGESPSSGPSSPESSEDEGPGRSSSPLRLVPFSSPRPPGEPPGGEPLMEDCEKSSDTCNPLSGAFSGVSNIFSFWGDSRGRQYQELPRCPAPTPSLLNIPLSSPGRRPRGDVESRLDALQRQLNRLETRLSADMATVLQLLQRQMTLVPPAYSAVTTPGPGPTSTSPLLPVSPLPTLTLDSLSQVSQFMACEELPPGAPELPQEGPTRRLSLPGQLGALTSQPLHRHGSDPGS
# T12 sequence (P35367 whole entry): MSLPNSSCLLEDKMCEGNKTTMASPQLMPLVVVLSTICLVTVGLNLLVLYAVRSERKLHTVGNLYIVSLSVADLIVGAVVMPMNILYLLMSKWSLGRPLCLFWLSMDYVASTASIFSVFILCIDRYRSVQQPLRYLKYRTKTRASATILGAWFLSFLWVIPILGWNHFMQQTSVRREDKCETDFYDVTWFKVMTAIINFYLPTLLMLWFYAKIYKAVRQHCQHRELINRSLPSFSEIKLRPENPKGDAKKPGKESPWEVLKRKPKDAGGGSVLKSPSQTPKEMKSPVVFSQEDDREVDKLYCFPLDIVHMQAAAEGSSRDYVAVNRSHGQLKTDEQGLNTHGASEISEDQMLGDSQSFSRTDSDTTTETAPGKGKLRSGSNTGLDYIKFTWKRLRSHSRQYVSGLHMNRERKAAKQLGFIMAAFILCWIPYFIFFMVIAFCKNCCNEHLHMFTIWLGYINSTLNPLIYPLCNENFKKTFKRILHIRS
# T9 sequence (P21728 whole entry): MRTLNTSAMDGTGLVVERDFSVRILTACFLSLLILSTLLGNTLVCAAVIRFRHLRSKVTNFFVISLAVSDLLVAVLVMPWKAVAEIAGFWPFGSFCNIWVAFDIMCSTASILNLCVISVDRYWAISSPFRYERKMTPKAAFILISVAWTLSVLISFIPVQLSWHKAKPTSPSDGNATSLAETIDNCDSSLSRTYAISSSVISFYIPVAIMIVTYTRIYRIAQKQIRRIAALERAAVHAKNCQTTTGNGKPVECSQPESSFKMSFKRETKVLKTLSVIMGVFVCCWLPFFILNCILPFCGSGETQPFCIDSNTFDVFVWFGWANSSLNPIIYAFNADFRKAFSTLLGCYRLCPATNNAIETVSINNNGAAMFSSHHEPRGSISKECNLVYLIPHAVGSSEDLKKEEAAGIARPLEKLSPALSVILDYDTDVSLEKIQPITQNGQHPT
# D3, sequence (P35462 whole entry): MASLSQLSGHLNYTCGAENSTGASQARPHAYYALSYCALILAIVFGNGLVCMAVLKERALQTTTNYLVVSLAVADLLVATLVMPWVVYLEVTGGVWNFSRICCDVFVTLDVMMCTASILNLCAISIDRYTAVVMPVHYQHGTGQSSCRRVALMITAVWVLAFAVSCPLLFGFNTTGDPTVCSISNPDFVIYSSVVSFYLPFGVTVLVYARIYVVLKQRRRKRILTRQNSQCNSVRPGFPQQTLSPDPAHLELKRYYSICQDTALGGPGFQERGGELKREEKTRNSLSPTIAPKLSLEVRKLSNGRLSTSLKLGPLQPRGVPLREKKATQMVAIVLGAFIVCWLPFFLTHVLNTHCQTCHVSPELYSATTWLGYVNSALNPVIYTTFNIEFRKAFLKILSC
compound,measurement,setting,value
"C[C@@]1(O)CC2CC1[C@@H]1C(=O)N(CC3CCCC[C@H]3CN3CCN(c4nsc5ccccc45)CC3)C(=O)[C@H]21 (stereo in doubt) [(3aS,4S,5R,7S,7aR)-2-[((1R,2R)-2-{[4-(1,2-benzisothiazol-3-yl)piperazin-1-yl]methyl}cyclohexyl)methyl]-5-hydroxy-5-methylhexahydro-1H-4,7-methanoisoindole-1,3-dione]",Ki,D3,2 nM
same,Ki,α1A,31 nM
same,Ki,5HT2C [1],16 nM
same,EC50,5HT1A,98 nM
same,Functional Potency 5HT1A % max,5HT1A; max response,77%
same,IC50,5HT2C [2],1710 nM
same,IC50,D2 [3],25 nM
same,IC50,5HT2A [4],32 nM
same,Ki,α1D,82 nM
same,Ki,D2 [5],1 nM
same,IC50,α2A [6],1220 nM
same,IC50,α2C [7],160 nM
same,Ki,5HT2A [8],< 10 nM
same,Ki,D1 [9],457 nM
same,IC50,hERG [10],4 µM
same,Ki,hERG [11],644 nM
same,Ki,5HT1A (native),8 nM
same,Ki,α2C [12],9 nM
same,IC50,D1 [13],1650 nM
same,Ki,H1 [14],371 nM
same,Ki,α2A [15],59 nM
same,IC50,H1 [16],3.1 µM
